Test [1] has as its system GLXMA (Soybean). The test is described as follows: Preemergence herbicidal evaluation. Format: in vivo, Glycine max. As to conditions: rated 4-5 weeks after treatment. From the text: (§1) Results of herbicide evaluation are expressed on a rating scale (0-9). The scale is based upon a visual observation of plant stand, vigor, malformation, size, chlorosis and overall plant appearance as compared with a control.
The preemergence herbicidal activity of the test compounds of the present invention is exemplified by the following tests in which the seeds of a variety of monocotyledonous and dicotyledonous plants are separately mixed with potting soil and planted on top of approximately one inch of soil in separate pint cups. After planting, the cups are sprayed with the selected aqueous acetone solution containing test compound in sufficient quantity to provide the equivalent of about 0.0156 to 0.500 kg per hectare of test compound per cup. The treated cups are then placed on greenhouse benches, watered and cared for in accordance with conventional greenhouse procedures. From four to five weeks after treatment, the tests are terminated and each cup is examined and rated according to the rating system provided in Example 37.
The compounds evaluated are reported by compound number given in Example 37.

In test [2] the test system is GLXMA (Soybean). The test is described as follows: Postemergence herbicidal evaluation. Format: in vivo, Glycine max. The procedure:
In the tests, seedling plants are grown in jiffy flats for about two weeks. The test compounds are dispersed in 50/50 acetone/water mixtures containing 0.5% TWEEN®20, a polyoxyethylene sorbitan monolaurate surfactant of Atlas Chemical Industries, in sufficient quantities to provide the equivalent of about 0.0156 kg to 0.500 kg per hectare of active compound when applied to the plants through a spray nozzle operating at 40 psi for a predetermined time. After spraying, the plants are placed on greenhouse benches and are cared for in accordance with conventional greenhouse procedures. From four to five weeks after treatment, the seedling plants are examined and rated according to the rating system set forth below. Where more than one test is involved for a given compound, the data are averaged.
Plant species employed in these evaluations are reported by header abbreviation, common name and scientific name.
as §1

For the compound `CCOC(=O)CN1C(=O)C(CC(=O)O)S/C1=N/c1cc(-n2c(=O)cc(C(F)(F)F)n(C)c2=O)c(F)cc1Cl` (stereo not drawn) [Compound 16], the “GLXMA preemergence herbicidal rating” value with GLXMA (Soybean) [1] (rate 0.0156 kg/ha) is 0.0; with GLXMA (Soybean) [1] (rate 0.0313 kg/ha) it was 0.0; in the test on GLXMA (Soybean) [1] (rate 0.0625 kg/ha) it was 2.0; with GLXMA (Soybean) [1] (rate 0.1250 kg/ha), 2.0; in the test on GLXMA (Soybean) [1] (rate 0.2500 kg/ha) it was 3.5; in the test on GLXMA (Soybean) [1] (rate 0.5000 kg/ha), 7.0.

As to `CCC1SC(=Nc2cc(N3C(=O)C4=C(CCCC4)C3=O)c(F)cc2Cl)N(C)C1=O` (stereo not drawn) [Compound 6, N-{4-chloro-5-[(5-ethyl-3-methyl-4-oxo-2-thiazolidinylidene)amino]-2-fluorophenyl}-1-cyclohexene-1,2-dicarboximide], the GLXMA herbicidal rating is recorded as 3.0 in the test with GLXMA (Soybean) [2] (rate 0.0157 kg/ha); 3.0 with GLXMA (Soybean) [2] (rate 0.0313 kg/ha); 3.0 in the test with GLXMA (Soybean) [2] (rate 0.0625 kg/ha); 3.5 in the test on GLXMA (Soybean) [2] (rate 0.1250 kg/ha); 4.0 with GLXMA (Soybean) [2] (rate 0.2500 kg/ha); 4.0 in the test on GLXMA (Soybean) [2] (rate 0.5000 kg/ha). For the same compound, the “GLXMA preemergence herbicidal rating” value in the test on GLXMA (Soybean) [1] (rate 0.1250 kg/ha), in the test on GLXMA (Soybean) [1] (rate 0.2500 kg/ha) and with GLXMA (Soybean) [1] (rate 0.5000 kg/ha) was 0.0 throughout.
